Reference: BindingDB's records for doi:10.1021/acs.jmedchem.6b01870 (Purdue University, 2017)

Columns and labels:
[1] = target: Tyrosyl-DNA phosphodiesterase 1 (Homo sapiens, UniProt Q9NUW8); experiment: ChEBML_1689436
Method: Inhibition of recombinant TDP1 (unknown origin) using 5'-[32P]-labeled single stranded DNA containing a 3'-phosphotyrosine as substrate after 15 mins by PAGE analysis

[2] = target: T1, Tyrosyl-DNA phosphodiesterase 2 (Homo sapiens, UniProt O95551); experiment: ChEBML_1689437
T1 sequence (O95551 whole entry): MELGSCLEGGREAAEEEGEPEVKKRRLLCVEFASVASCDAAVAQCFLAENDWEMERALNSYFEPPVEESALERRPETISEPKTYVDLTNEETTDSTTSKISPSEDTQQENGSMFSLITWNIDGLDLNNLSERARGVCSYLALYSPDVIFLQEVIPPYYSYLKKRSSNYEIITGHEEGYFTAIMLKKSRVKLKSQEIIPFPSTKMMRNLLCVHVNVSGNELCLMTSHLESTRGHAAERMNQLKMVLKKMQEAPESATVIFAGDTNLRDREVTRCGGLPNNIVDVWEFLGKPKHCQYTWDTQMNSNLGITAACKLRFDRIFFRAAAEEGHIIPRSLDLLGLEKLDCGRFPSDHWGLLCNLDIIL
Method: Inhibition of recombinant human TDP2 using 3'-labeled alpha-[32P]-cordycepin as substrate after 15 mins

Chain of Tyrosyl-DNA phosphodiesterase 1 (Q9NUW8 whole entry): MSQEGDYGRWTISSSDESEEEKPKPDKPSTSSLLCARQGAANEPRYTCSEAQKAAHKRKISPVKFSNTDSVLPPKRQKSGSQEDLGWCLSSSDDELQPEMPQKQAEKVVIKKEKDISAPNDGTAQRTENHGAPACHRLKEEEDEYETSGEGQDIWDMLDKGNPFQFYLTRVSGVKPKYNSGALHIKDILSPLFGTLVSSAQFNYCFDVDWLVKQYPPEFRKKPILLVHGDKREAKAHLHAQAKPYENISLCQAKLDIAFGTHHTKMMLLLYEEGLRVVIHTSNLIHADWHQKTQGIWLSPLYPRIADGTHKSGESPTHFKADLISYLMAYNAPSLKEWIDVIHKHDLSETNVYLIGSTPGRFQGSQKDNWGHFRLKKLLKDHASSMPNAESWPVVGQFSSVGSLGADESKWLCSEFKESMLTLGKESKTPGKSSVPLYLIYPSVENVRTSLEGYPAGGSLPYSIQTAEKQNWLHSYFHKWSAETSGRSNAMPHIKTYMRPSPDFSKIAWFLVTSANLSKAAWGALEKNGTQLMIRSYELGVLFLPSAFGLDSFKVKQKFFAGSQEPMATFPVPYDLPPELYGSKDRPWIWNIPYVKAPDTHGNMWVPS

## CC[C@@]1(O)C(=O)OCc2c1cc1n(c2=O)Cc2cc3ccccc3nc2-1 [4-Ethyl-4-hydroxy-1,12-dihydro-4H-2-oxa-6,12a-diaza-dibenzo[b,h]fluorene-3,13-dione (Camptothecin)]
[1]
  IC50: > 111 µM
[2]
  IC50: > 111 µM
